From US9688709B2, “Phosphaplatins and their use for treatment of cancers” (OHIO UNIVERSITY, priority 2010, dated 2017)
Several values for one entry are separate records, joined by “and”; a condition that tells them apart may be missing. Identical values can stand only once.

Key:
[1] = system: A2780, epithelial human ovarian cancer; test: Clonogenic assay, A2780 cells; type: cell-based
Description: (§1) To determine the relative activities of the phosphaplatins of formulas (I)-(VI), each stereoisomer was tested through in vitro clonogenic assays using human ovarian cancer cells, human colon cancer cells, and human head-and-neck cancer cells. […] Cells were cultured on monolayer using RPMI 1640 supplemented with 10% fetal bovine serum, 2 mM glutamine, 0.25 units/mL insulin and penicillin/streptomycin (100 units/mL) in a 37° C. incubator continuously gassed with 5% CO2. Cells were subcultured using 0.0625% trypsin in HBSS to maintain cells in exponential cell growth.
Half-maximal inhibitory concentration (IC50) values were determined using a clonogenic assay or a CyQUANT® cell proliferation assay. In the clonogenic assay, for example, 500-700 A2780 cells from a single cell suspension were plated onto 60 mm petri plates 24 hours before treatment with the platinum compounds to permit cell attachment. On the day of treatment with the platinum compounds described in the above Synthesis Examples, the medium was decanted and was replaced with the appropriate concentration of phosphaplatin compounds (from 50 nM to 75 μM) at three different time points, […] Triplicate plates were set up for each platinum compound concentration. […] These plates were returned to the 37° C. incubator for 7 days for colony formation.
(§2) In TABLES 1-5, except where actual error values are given, each reported value is assumed to have an error not greater than ±15% of the reported value; and unless otherwise specified, the data were obtained from clonogenic assays.
(§3) In further tests, cells were treated with the platinum compounds continuously for 7 days. Colonies were fixed and stained using 2% crystal violet in 4% formaldehyde. Colonies containing more than 50 cells were scored. The number of scored colonies from the triplicate plates was averaged, and this number was divided by the number of cells plated to obtain a value for the fraction of cells forming colonies. These values for fraction of cells forming colonies then were corrected for plating efficiency by dividing the fraction by the number of cells forming colonies in plates that were not treated with platinum compounds. […] Similar data for OVCAR-10 are shown in FIG. 3, comparing (1R,2R)-pyrodach-2 (RD2), (1R,2R)-pyrodach-4 (RD4), trans-(±)-pyrodach-2 (T-D2), and trans-(±)-pyrodach-4 (T-D4).

[2] = system: A2780/C30, epithelial human ovarian cancer resistant to 30 μM cisplatin and 100 μM carboplatin; test: Clonogenic assay, A2780/C30 cells; type: cell-based; conditions: A2780/C30, 1 hour treatment
Description: as §1
Half-maximal inhibitory concentration (IC50) values were determined using a clonogenic assay or a CyQUANT® cell proliferation assay. In the clonogenic assay, for example, 500-700 A2780 cells from a single cell suspension were plated onto 60 mm petri plates 24 hours before treatment with the platinum compounds to permit cell attachment. On the day of treatment with the platinum compounds described in the above Synthesis Examples, the medium was decanted and was replaced with the appropriate concentration of phosphaplatin compounds (from 50 nM to 75 μM) at three different time points, […] Triplicate plates were set up for each platinum compound concentration. After the 24-hour treatment, the medium containing the platinum compounds was decanted and was replaced with fresh medium. These plates were returned to the 37° C. incubator for 7 days for colony formation.
as §2, §3

[3] = system: pancreatic cell line Panc-1; test: 144 hour exposure IC50, Panc-1; type: cell-based; conditions: Panc-1, 144 hours exposure
Description: (§4) Additionally these isomeric compounds were also tested by exposing them for 144 hours in the following cell lines: UMSCC10b, Panc-1, UMSCC15s, A2780/C30 and HCC1806.

[4] = system: UMSCC10b/15s, cisplatin-resistant human head-and-neck cancer cell line; test: Clonogenic assay, UMSCC10b/15s cells; type: cell-based; conditions: 7-day treatment
Description: as §1
(§5) Half-maximal inhibitory concentration (IC50) values were determined using a clonogenic assay or a CyQUANT® cell proliferation assay. In the clonogenic assay, for example, 500-700 A2780 cells from a single cell suspension were plated onto 60 mm petri plates 24 hours before treatment with the platinum compounds to permit cell attachment. […]
(§6) In further tests, cells were treated with the platinum compounds continuously for 7 days. […] Colonies containing more than 50 cells were scored. The number of scored colonies from the triplicate plates was averaged, and this number was divided by the number of cells plated to obtain a value for the fraction of cells forming colonies. […]

[5] = system: head and neck cancer cell line UMSCC10b; test: 144 hour exposure IC50, UMSCC10b; type: cell-based, human
Description: as §4

[6] = system: breast cancer cell line HCC1806; test: 144 hour exposure IC50, HCC1806; type: cell-based; conditions: HCC1806, 144 hours exposure
Description: as §4

[7] = system: SKMEL-2, human skin melanoma cancer cells; test: CyQUANT cell proliferation assay, SKMEL-2; type: cell-based; conditions: SKMEL-2, 72-hour treatment
Source text: (§7) In these experiments, desired number of cells were exposed to phosphaplatins of different concentrations for 72 hr. before measuring the DNA content. Because the DNA content is proportional to the number of surviving cells, the assay provides a quantitative measure of proliferating cells. The technique is described in detail in Jones et al., “Sensitive determination of cell number using the CyQUANT cell proliferation assay,” J. Immunol. Methods, vol. 254, pp. 85-98 (2001).
as §2

[8] = system: OVCAR-10, human ovarian cancer resistant to cisplatin treatment; test: CyQUANT cell proliferation assay, OVCAR-10; type: cell-based; conditions: OVCAR-10, 72-hour treatment
Source text: as §7, §2

[9] = system: PC-3, human metastatic prostate cancer cells; test: CyQUANT cell proliferation assay, PC-3; type: cell-based; conditions: PC-3, 72-hour treatment
Source text: as §7, §2

[10] = system: OVCAR-10, human ovarian cancer resistant to cisplatin treatment; test: Clonogenic assay, OVCAR-10 cells; type: cell-based; conditions: OVCAR-10, 24 hours treatment
Description: as §1
Half-maximal inhibitory concentration (IC50) values were determined using a clonogenic assay or a CyQUANT® cell proliferation assay. In the clonogenic assay, for example, 500-700 A2780 cells from a single cell suspension were plated onto 60 mm petri plates 24 hours before treatment with the platinum compounds to permit cell attachment. On the day of treatment with the platinum compounds described in the above Synthesis Examples, the medium was decanted and was replaced with the appropriate concentration of phosphaplatin compounds (from 50 nM to 75 μM) at three different time points, and the treated cells were placed back into the 37° C. incubator for 24 hours. Triplicate plates were set up for each platinum compound concentration. After the 24-hour treatment, the medium containing the platinum compounds was decanted and was replaced with fresh medium. These plates were returned to the 37° C. incubator for 7 days for colony formation.
as §2, §3

[11] = system: A549, human lung adenocarcinoma cancer cells; test: CyQUANT cell proliferation assay, A549; type: cell-based; conditions: A549, 72-hour treatment
Source text: as §7, §2

[12] = system: OVCAR-8, human ovarian cancer cells with dysfunctional p53; test: CyQUANT cell proliferation assay, OVCAR-8; type: cell-based; conditions: OVCAR-8, 72-hour treatment
Source text: as §7, §2

[13] = system: OVCAR-5, advanced human ovarian cancer cells; test: Clonogenic assay, OVCAR-5 cells; type: cell-based; conditions: OVCAR-5, 24 hours treatment
Description: as §1, §5, §6

[14] = system: U251, human glioblastoma cancer cells; test: CyQUANT cell proliferation assay, U251; type: cell-based; conditions: U251, 72-hour treatment
Source text: as §7, §2

[15] = system: human ovarian cancer OVCAR-10 xenograft; test: In vivo efficacy, OVCAR-10 mouse xenograft; set-up: species or system mice; conditions: 60 mg/kg qodx3, time to tumor size 1000 mm^3, compared with control
Description: Stable human clonal ovarian cancer cell lines OVCAR-10 and head and neck cancer UMSCC10b were grown separately in cell culture until 80-90% confluency was reached. Trypsin (GIBCO/BRL, Grand Island, N.Y.) was used to detach adherent cells. Trypsinized cells were thoroughly washed with PBS (Phosphate Buffered Saline) to remove trypsin. Efficacy of phosphaplatin compounds were evaluated by subcutaneously implanting human OVCAR-10 and UMSCC-10b xenograft in SCID Hairless OutBred, SHO-Prkdc^scidHr^hr, (Charles River Labs, Wilmington, Mass.) mice, NIH (NIH III: NIHBNX-F; NIHS-Lystbg Foxnlnu Btkxid, 4-week old female, Taconic (Rensselaer, N.Y.) mice.
Female SCID/NIH mice 4-5 weeks old were acclimated for one week before initiation of efficacy trials. Cancer cells were re-suspended in PBS and all mice except for negative control mice were injected subcutaneously with from 1×10^6 cells/0.10 mL to 5×10^6 cells/0.10 mL in PBS. The tumor size was evaluated as a function of time. The mice were examined daily for tumor growth. Tumors were measured using digital calipers. The tumor volume was calculated by the formula (W^2×L)/2, where W is the tumor measurement at the widest point, and L is the tumor dimension at the longest point, where the volume of the tumor in mm^3 is equivalent to the weight in mg.
After approximately 2 weeks of the subcutaneous injection of cancer cells, the tumors that had reached a distinguishable tumor sizes (approximately 100 mm^3 to 200 mm^3), phosphaplatin compounds of desired doses were administered intra-peritoneally. These administrations were done one time on day 1, once on day 3, and once on day 5.
Each group of xenograft mice was treated with phosphaplatin compounds, and a matched set was treated with vehicle/placebo (PBS solution) and mock injection (as a control for stress response). […] The xenograft SCID mice/NIH were monitored every day for any adverse events in their health by measuring weight loss/gain and food consumption. Measurements were stopped and the study was ended when the tumor size exceeded 3000 mm^3. […]

[16] = Maximum tolerated dose toxicity in ICR (CD-1) mice; type: in vivo; conditions: dose of 60 mg/kg
Description: Escalating doses were administered from 10 mg/kg to 100 mg/kg in 4-5 week-old female ICR (CD-1) mice, Taconic (Rensselaer, N.Y.). The mice had body weights between 15 g and 24 g. The mice were injected with one of the phosphaplatins every other day in a three-dose regimen. Total body-weight loss of 20% or more, unthrifty appearance, failure to gain weight, other observable health issues, departures from normal behaviors, or death, were considered an adverse event.

[17] = system: Ovarian tumor; test: Ovarian tumor inflicted SCID mice, tumor growth and log cell kill; type: in vivo
Description: Ovarian tumor inflicted SCID mice were treated with trans-(±)-pyrodach-2 and trans-(±)-pyrodach-4 at various doses up to 40 mg/kg, and tumor growth was monitored up to six weeks or until the tumor size became so large that these animals were sacrificed. The tumor growth or regression by the phosphaplatin-treated mice was then compared with cisplatin-treated mice (7 mg/kg) and carboplatin-treated mice (60 mg/kg). Three doses of platinum compounds were administered on alternate days when the tumor grew to a size of at least 100 mm^3 size. Gross and net log cell kill values were then calculated using the formulas:
[formula] [formula] where T and C are median times in days to grow tumor to a specified size, and Td is the median time in days to double the size of the tumor in control animals.

[18] = system: FAS; test: Western blot protein expression, FAS; type: in vivo; conditions: treated mice, exposure 1 hour to 12 hours
Description: (§8) Following 12% SDS-PAGE electrophoresis, proteins were transferred to a PVDF membrane using 100 V for 1.5 hours at 4° C. Membranes were washed with 0.05% TWEEN-20 and Tris-buffered saline (TBST) solution and blocked with 5% non-fat dry milk and 1% BSA. The membrane was incubated with a 1:25,000 dilution of primary antibody of the protein of interest over night at 4° C. Membranes were washed with 0.05% TBST followed by incubating in the corresponding HRP-conjugated antibody (1:40,000 dilution). The proteins were visualized using ECL-Advance chemiluminescent system (Amersham-GE Healthcare Biosciences, Pittsburgh, Pa.).
(§9) The phosphaplatins activate a number of proapototic and tumor suppression genes such as FAS, PTEN, PUMA, BAX and others. Experiments through Western Blots confirm high levels of protein expressions transcribed by these genes. […] Likewise, BCL2 was down regulated as much as 70% by RR-pyrodach-2 and RR-pyrodach-4. Additionally, FAS, FADD, and platinum compound were co-localized in the lipid rafts. These activations are also associated with the increased expression of Sphingomyelinase (Smase), as verified by the increased protein expression of SMase.

[19] = system: VEGFR; test: Western blot protein expression, VEGFR; type: in vivo; conditions: treated mice, exposure 1 hour to 12 hours
Description: as §8, §9

[20] = system: PUMA; test: Western blot protein expression, PUMA; type: in vivo; conditions: treated mice, exposure 1 hour to 12 hours
Description: as §8, §9

[21] = system: BAX; test: Western blot protein expression, BAX; type: in vivo; conditions: treated mice, exposure 1 hour to 12 hours
Description: as §8, §9

[22] = 40 mg/kg, three doses on alternate days

Compound	IC50 ([1]; A2780, 1 hour treatment)	IC50 ([1]; A2780, 24 hours treatment) [µM]	IC50 [2] [µM]	IC50 [7] [µM]	IC50 [8] [µM]	IC50 [9] [µM]	IC50 [10] [µM]	IC50 [11] [µM]	IC50 [12] [µM]	IC50 [14] [µM]	other results
NC1CCCCC1N.O=P([O-])(O)OP(=O)([O-])O.[Pt+2] (racemic) [trans-(±)-pyrodach-2, trans-(±)-1,2-cyclohexanediamine(pyrophosphato) platinum(II)]	22 ± 4 µM	2.4 ± 0.2	48 ± 5	8.3	11.8	24.5	4.6	11.1	9.4	10.1	IC50 [3]: 18.5 µM; IC50 [4]: 5 µM; IC50 [5]: 8.9 µM; IC50 [6]: > 30 µM; IC50 [13]: 12.2 µM
N.N.O=C([O-])C1(C(=O)[O-])CCC1.[Pt+2] [carboplatin]	90 µM	> 60	> 200				26.7				percent increased life-span (% ILS) [15]: about 125%; death [16]: 33%; population died ([17]; 60 mg/kg dose): more than 50%; log cell kill values ([17]; 60 mg/kg, three doses on alternate days): less than 2
trans-(±)-1,2-cyclohexanediamine-trans-dihydroxo(pyrophosphato) platinum(IV) [trans-(±)-pyrodach-4]	180 µM and 170 µM		155 ± 20	14.6	23.2	20	14.4	12.2	12.3	14.6	upregulation of FAS [18]: up to 25 fold; down regulation of VEGFR [19]: up to 50%; upregulation of PUMA [20]: up to 5 fold; upregulation of BAX [21]: up to 4 fold; gross log cell kill [17, 22]: greater than 3; log net cell kill [17, 22]: greater than 2
